According to patent publication US9840481B2, “Allosteric modulators of nicotinic acetylcholine receptors” (MERCK SHARP & DOHME CORP., priority 2016, dated 2017):
Like-named read-outs stand apart in the source and are kept apart here.

Biological target: T1, human α7 nAChR stably expressed in a HEK cell line (with human RIC-3) (Homo sapiens, UniProt P36544)
T1 construct: PrecisION hnAChR α7/RIC-3
Test: Automated patch-clamp electrophysiology functional assay (Assay A), IonFlux HT, whole-cell population patch
Format: cell-based
Protocol: The α7 nAChR positive allosteric modulator (PAM) activity of the present compounds may be tested using assays known in the art. The α7 nAChR PAMs described herein have activities in an automated patch-clamp electrophysiology functional assay as described in the examples. The assay was performed using the IonFlux HT in a whole-cell, population patch configuration. See Golden et al. Assay Drug Dev. Technol. (2011) 9:608-619. The compounds were assessed for their ability to modulate the function of the human α7 nAChR stably expressed in a HEK cell line both in the presence, and in the absence of the natural α7 agonist acetylcholine. By performing a series of such measurements at different concentrations, the effective concentration of the α7 nAChR PAMs (EC50) was determined. See Spencer et al. Assay Drug Dev. Technol. (2012) 10:313-324.
Direct activation of α7 (agonism), and potentiation of 5 acetylcholine-evoked α7 currents was determined as follows:
Automated Patch-Clamp Electrophysiology Functional Assay (Assay A)
Automated patch-clamp electrophysiology was performed using the IonFlux HT (Fluxion Biosciences Inc., San Francisco, Calif.) in the whole-cell, population patch configuration. Test compounds were assessed for their ability to modulate the function of the α7 nicotinic acetylcholine receptor both in the presence, and in the absence of the natural α7 agonist acetylcholine. A HEK cell line stably expressing both human RIC-3 and human α7 (PrecisION hnAChR α7/RIC-3, Eurofins Pharma, St. Charles, Mo.) was cultured in 175 cm^2 triple-layer tissue culture flasks to no more than 90% confluency in DMEM/F-12 growth media supplemented with 10% heat-inactivated fetal bovine serum, 1% non-essential amino acids, 0.625 μg/mL Puromycin, and 400 μg/mL Geneticin. Immediately prior to assay, cells were detached by first aspirating growth media, rinsing with Dulbecco's phosphate buffered saline, and then adding 10 mL of Accutase (Innovative Cell Technologies, San Diego, Calif.) to the flask and then incubating at 37° C. for 5 minutes. Detached cells were then recovered by the addition of 40 mL of CHO-serum-free media supplemented with 25 mM HEPES, and rocked gently in a 50 mL conical tube for 20 minutes prior to patch-clamp assay. After recovery, cells were pelleted by centrifugation at 1,000 RPM for 1 minute in a compact bench top centrifuge; recovery media was aspirated and cells were resuspended in external recording solution (150 mM NaCl, 5 mM KCl, 2 mM CaCl2, 1 mM MgCl2, 10 mM HEPES, 12 mM dextrose) to a density of 5.0×10^6 cells/mL. The cell suspension was added to the cell inlet wells on an IonFlux HT population patch plate which had previously been rinsed and primed with deionized H2O. Test compounds were serially diluted in DMSO and then resuspended to the final test concentration in external recording solution, with, or without […] acetylcholine added to the external recording solution; test compounds were then transferred to the IonFlux HT population patch plate. Internal recording solution (110 mM TrisPO4, 28 mM TrisBase, 0.1 mM CaCl2, 2 mM MgCl2, 11 mM EGTA, 4 mM MgATP) was added to the internal recording solution inlet wells on the IonFlux HT patch plate previously loaded with cells and test compounds, and the plate loaded into the IonFlux HT instrument. A protocol was executed on the IonFlux HT to trap the cells, break into the cells, and establish the whole-cell recording configuration; cells were voltage-clamped at a holding potential of −60 mV for the duration of the experiment, all experiments were conducted at room temperature, and the IonFlux HT injection pressure was 8 psi for solution applications. Upon establishing the whole-cell configuration, external recording solution was perfused into the recording chambers for 120 seconds and then 40 μM acetylcholine was applied for 1 second and immediately washed off with external recording solution for 60 seconds. […]

[1] = automated patch-clamp electrophysiology functional assay (Assay A), potency class by EC50, read-out: α7 nAChR Potency
[2] = electrophysiology EC50, HEK cells expressing human α7/RIC-3, 40 μM acetylcholine, holding potential −60 mV, room temperature, read-out: α7 nAChR EC50

T1 sequence (P36544 23-502): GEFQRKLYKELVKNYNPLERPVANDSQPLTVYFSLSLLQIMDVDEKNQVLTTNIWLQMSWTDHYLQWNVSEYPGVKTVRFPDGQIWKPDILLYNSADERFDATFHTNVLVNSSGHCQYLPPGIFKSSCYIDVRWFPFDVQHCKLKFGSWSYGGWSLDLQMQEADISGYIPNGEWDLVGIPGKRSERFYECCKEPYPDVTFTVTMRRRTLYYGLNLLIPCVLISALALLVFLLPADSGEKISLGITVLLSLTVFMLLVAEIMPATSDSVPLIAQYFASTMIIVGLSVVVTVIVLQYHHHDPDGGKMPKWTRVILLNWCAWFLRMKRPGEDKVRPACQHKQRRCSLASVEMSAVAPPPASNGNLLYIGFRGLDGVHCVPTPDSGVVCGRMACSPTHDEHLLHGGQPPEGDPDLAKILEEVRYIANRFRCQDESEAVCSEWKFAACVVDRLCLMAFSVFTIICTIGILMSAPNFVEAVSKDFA

Row | Compound | EC50 [1] | EC50 [2]
1 | CC1(C)[C@H](c2ccc(S(N)(=O)=O)cc2)[C@H]1c1cnn(C2CCCC2)c1 [Example L8] | 500 to 5000 nM | 
2 | CC1(C)[C@@H](c2ccc(S(N)(=O)=O)cc2)[C@@H]1c1cn(-c2cccc(F)c2)nn1 [Example L6] | 500 to 5000 nM | 950 nM
3 | NS(=O)(=O)c1ccc([C@@H]2C[C@H]2c2nc(-c3ccccc3)cs2)cc1 [Example K9] | 500 to 5000 nM | 670 nM
4 | CC1(C)[C@@H](c2ccc(S(N)(=O)=O)cc2)[C@@H]1c1noc(C2CC2)n1 [Example I25] | 500 to 5000 nM | 710 nM
5 | CCOc1nc([C@@H]2[C@@H](c3ccc(S(N)(=O)=O)cc3)C2(C)C)ns1 [Example L9] | 500 to 5000 nM | 
6 | CC(C)(F)c1noc([C@H]2[C@H](c3ccc(S(N)(=O)=O)cc3)C2(F)F)n1 [Example D35] | 100 to 500 nM | 410 nM
7 | CC1(C)[C@@H](c2ccc(S(N)(=O)=O)cc2)[C@@H]1c1noc(-c2ccc3nc(O)sc3c2)n1 [Example I32] | 100 to 500 nM | 
8 | NS(=O)(=O)c1ccc([C@@H]2C[C@H]2c2cnc(-c3ccccc3)s2)cc1 [Example 27, 4-[(1R,2R)-2-(2-Phenyl-1,3-thiazol-5-yl)cyclopropyl]benzenesulfonamide] | 500 to 5000 nM | 620 nM
9 | CC1(C)[C@@H](c2ccc(S(N)(=O)=O)cc2)[C@@H]1c1noc(Cc2ccc(F)cc2F)n1 [Example I1] | 100 to 500 nM | 
10 | NS(=O)(=O)c1ccc([C@@H]2C[C@H]2c2nc(-c3ccccc3F)no2)cc1 [Example C20] | 100 to 500 nM | 
11 | CC1(C)[C@H](c2ccc(S(N)(=O)=O)cc2)[C@H]1c1nc(CC2CC2)no1 [Example B10] | 500 to 5000 nM | 3000 nM
12 | CC1(C)[C@H](c2ccc(S(N)(=O)=O)cc2)[C@H]1c1nc(-c2ccccc2F)no1 [Example A12] | 500 to 5000 nM | 
13 | CC1(C)[C@H](c2ccc(S(N)(=O)=O)cc2)[C@H]1c1nc(C2CCCCC2)no1 [Example 20, 4-((1R,3R)-3-(3-Cyclohexyl-1,2,4-oxadiazol-5-yl)-2,2-dimethylcyclopropyl)benzenesulfonamide] | 500 to 5000 nM | 660 nM
14 | CC1(C)[C@@H](c2ccc(S(N)(=O)=O)cc2)[C@@H]1c1ncc(-c2ccccc2)s1 [Example 17, 4-[(1S,3S)-2,2-Dimethyl-3-(5-phenyl-1,3-thiazol-2-yl)cyclopropyl]benzenesulfonamide] | 500 to 5000 nM | 2000 nM
15 | CC1(C)[C@H](c2ccc(S(N)(=O)=O)cc2)[C@H]1c1cnc(-c2ccccc2)o1 [Example 10, 4-[(1R,3R)-2,2-Dimethyl-3-(2-phenyl-1,3-oxazol-5-yl)cyclopropyl]benzenesulfonamide] | 500 to 5000 nM | 1200 nM
16 | CC1(C)[C@H](c2ccc(S(N)(=O)=O)cc2)[C@H]1c1nc(C2(c3ccccc3)CC2)no1 [Example B13] | 500 to 5000 nM | 4100 nM
17 | Cc1nc([C@@H]2C[C@H]2c2ccc(S(N)(=O)=O)cc2)sc1-c1ccccc1 [Example 16, 4-[(1R,2R)-2-(4-Methyl-5-phenyl-1,3-thiazol-2-yl)cyclopropyl]benzenesulfonamide] | ≤ 100 nM | 98 nM
18 | CC(C)(C)c1noc([C@@H]2[C@@H](c3ccc(S(N)(=O)=O)cc3)C2(F)F)n1 [Example B17] | 500 to 5000 nM | 850 nM
19 | CC1(C)[C@@H](c2ccc(S(N)(=O)=O)cc2)[C@@H]1c1nnc(-c2cc(F)ccc2C(F)(F)F)o1 [Example G6] | 500 to 5000 nM | 1100 nM
20 | Cc1noc([C@H]2[C@H](c3ccc(S(N)(=O)=O)cc3)C2(C)C)n1 [Example D13] | 5000 to 50000 nM | 6000 nM
21 | CC(F)(F)c1nc([C@H]2[C@H](c3ccc(S(N)(=O)=O)cc3)C2(C)C)no1 [Example I16] | 100 to 500 nM | 350 nM
22 | NS(=O)(=O)c1ccc([C@@H]2[C@@H](c3nc(-c4ccccc4)no3)C2(F)F)cc1 [Example A9] | 500 to 5000 nM | 
23 | CC(C)(C)c1cnc([C@@H]2C[C@H]2c2ccc(S(N)(=O)=O)cc2)o1 [Example K4] | 500 to 5000 nM | 

Row | Compound | EC50 [1] | EC50 [2]
24 | Cc1ncoc1-c1noc([C@@H]2C[C@H]2c2ccc(S(N)(=O)=O)cc2)n1 [Example D31] | 500 to 5000 nM | 
25 | CC1(C)[C@@H](c2ccc(S(N)(=O)=O)cc2)[C@@H]1c1noc(Cn2c(=O)oc3ccc(Cl)cc32)n1 [Example I5] | 500 to 5000 nM | 
26 | NS(=O)(=O)c1ccc([C@@H]2C[C@H]2c2noc(C3(C(F)(F)F)CC3)n2)cc1 [Example I35] | 500 to 5000 nM | 690 nM
27 | CC(C)Oc1ccc(Cl)cc1-c1noc([C@@H]2[C@@H](c3ccc(S(N)(=O)=O)cc3)C2(C)C)n1 [Example A4] | 500 to 5000 nM | 4800 nM
28 | CC1(C)[C@@H](c2ccc(S(N)(=O)=O)cc2)[C@@H]1c1noc(-c2cc3sccc3[nH]2)n1 [Example I22] | 5000 to 50000 nM | 5400 nM
29 | NS(=O)(=O)c1ccc(C2C(c3nc(C4CCCC4)no3)C2(Cl)Cl)cc1 (racemic) [Example M5] | 100 to 500 nM | 
30 | CC1(C)[C@H](c2ccc(S(N)(=O)=O)cc2)[C@H]1c1nnc(-c2cccnc2C2CC2)o1 [Example F6] | 500 to 5000 nM | 
31 | CC1(C)[C@H](c2ccc(S(N)(=O)=O)cc2)[C@H]1c1nc(C2CCc3cc(F)ccc32)no1 (stereo partly drawn) [Example B14] | 500 to 5000 nM | 1200 nM
32 | CC(c1nc([C@H]2[C@H](c3ccc(S(N)(=O)=O)cc3)C2(C)C)no1)n1ccnc1 (stereo partly drawn) [Example I11] | 5000 to 50000 nM | 
33 | CC1(C)[C@@H](c2ccc(S(N)(=O)=O)cc2)[C@@H]1c1nnc(-c2ccccc2)o1 [Example G1] | 500 to 5000 nM | 1800 nM
34 | NS(=O)(=O)c1ccc([C@@H]2C[C@H]2c2nc(C3CC(F)(F)C3)no2)cc1 [Example D19] | 500 to 5000 nM | 
35 | NS(=O)(=O)c1ccc([C@@H]2C[C@H]2c2nc(-c3cccc(F)c3)no2)cc1 [Example 4, 4-((1R,2R)-2-(3-(3-Fluorophenyl)-1,2,4-oxadiazol-5-yl)cyclopropyl)benzenesulfonamide] | 100 to 500 nM | 230 nM
36 | NS(=O)(=O)c1ccc([C@@H]2C[C@H]2c2csc(C3CCCC3)n2)cc1 [Example L14] | 500 to 5000 nM | 
37 | NS(=O)(=O)c1ccc([C@@H]2[C@@H](c3nc(C4CCC4)no3)C2(F)F)cc1 [Example B18] | 500 to 5000 nM | 1200 nM
38 | CC1(C)[C@@H](c2ccc(S(N)(=O)=O)cc2)[C@@H]1c1nc(C2CCCC2)co1 [Example K17] | 100 to 500 nM | 130 nM
39 | CC1(C)[C@@H](c2ccc(S(N)(=O)=O)cc2)[C@@H]1c1nc(-c2ccccc2)no1 [Example C4] | 100 to 500 nM | 370 nM
40 | CC1(C)[C@@H](c2ccc(S(N)(=O)=O)cc2)[C@@H]1c1noc(C2CN(C(=O)C3CC3)C2)n1 [Example I23] | 500 to 5000 nM | 
41 | CC1(C)[C@@H](c2ccc(S(N)(=O)=O)cc2)[C@@H]1c1nc(-c2ccc(F)cc2F)no1 [Example C12] | 500 to 5000 nM | 
42 | CC(C)(C)c1noc([C@H]2[C@H](c3ccc(S(N)(=O)=O)cc3)C2(C)C)n1 [Example D10] | 100 to 500 nM | 410 nM
43 | CC1(C)[C@H](c2ccc(S(N)(=O)=O)cc2)[C@H]1c1nc(-c2cccc(F)c2)no1 [Example A10] | 500 to 5000 nM | 1100 nM
44 | NS(=O)(=O)c1ccc([C@H]2C[C@@H]2c2nc(-c3ccc(F)cc3F)no2)cc1 [Example A8] | 5000 to 50000 nM | 
45 | NS(=O)(=O)c1ccc([C@@H]2C[C@H]2c2nc(Cc3ccc(F)cc3F)no2)cc1 [Example D26] | 500 to 5000 nM | 810 nM
